Results as given in patent publication US12637424B2, “Pharmaceutical salt of an arylpyrrole derivative” (SENTINEL ONCOLOGY LIMITED, priority 2020, dated 2026).
Structures can show the parent of a compound that is named as a salt.

Assays:
Assay type in all cases: physicochemical
[1] = Gravimetric solubility in water; conditions: thermodynamic from solid, gravimetric solubility protocol
Protocol: The solubility in water of the salts was measured using a gravimetric solubility protocol. 1 ml of water was charged into crystallisation tubes. The solid was weighed into a tared glass vial, added in portions to the solutions and the vial weighed after each addition until a hazy solution was observed. The amount in mg was then calculated to give the solubility in mg/ml.

[2] = Gravimetric vapour sorption (GVS)
Protocol: The sample was maintained at a constant temperature (25° C.) by the instrument controls. The humidity was controlled by mixing streams of dry and wet nitrogen, with a total flow of 250 ml·min-1. The instrument was verified for relative humidity content by measuring three calibrated Rotronic salt solutions (10-50-88%). The weight change of the sample was monitored as a function of humidity by a microbalance (accuracy+/−0.005 mg). A defined amount of sample was placed in a tared mesh stainless steel basket under ambient conditions. A full experimental cycle typically consisted of three scans (sorption, desorption and sorption) at a constant temperature (25° C.) and 10% RH intervals over a 0-90% range (60 minutes for each humidity level).

[3] = Solubility in (2-hydroxypropyl)-β-cyclodextrin 20% w/v in water; conditions: continuous stirring, gentle warming to 40° C.
[4] = Powder density and flowability
Protocol: The compound was allowed to settle prior to weighing with approximately 40 mL volume occupied and bulk density calculated. […] The tap density was then calculated.

[5] = ICH storage stability
Source text: The stability protocol followed ICH guidelines. […] Following storage, these samples were removed from the stability cabinet and analysed for appearance, water content by Karl Fischer titration (KF), and purity. No change in water content or chemical purity by HPLC was observed over six months. […]

[6] = calculated from bulk and tap density

solubility [1] [µg/mL] | moisture content before the first desorption ([2]; GVS, 25° C.) | moisture taken up between 80 and 90% RH ([2]; GVS, 25° C., 80-90% RH) | concentration achieved in solution [3] [µg/mL] | powder bulk density [4] [g/mL] | tap density [4] [g/mL] | Carr's index [4, 6] [%] | Hausner ratio [4, 6] | flowability ([4]; descriptor from Carr's index and Hausner ratio) | Appearance ([5]; T = 0) | Chemical purity by HPLC ([5]; T = 0) [%] | Water content by KF ([5]; T = 0) [% w/w] | Appearance ([5]; T = 6 month, 25° C./60% RH) | Chemical purity by HPLC ([5]; T = 6 month, 25° C./60% RH) [%] | Water content by KF ([5]; T = 6 month, 25° C./60% RH) [% w/w] | Appearance ([5]; T = 6 month, 40° C./75% RH) | Chemical purity by HPLC ([5]; T = 6 month, 40° C./75% RH) [%] | Water content by KF ([5]; T = 6 month, 40° C./75% RH) [% w/w] | change in water content or chemical purity by HPLC ([5]; over six months, 25° C./60% RH and 40° C./75% RH) | moisture uptake (surface moisture) ([2]; at 90% RH) [%] | Structure (SMILES)
6700 |  |  |  |  |  |  |  |  |  |  |  |  |  |  |  |  |  |  |  | CN(C)CCNC(=O)c1ccc(-c2ccc(-c3ccc(Cl)cc3)n2-c2ccccc2C(F)(F)F)cc1 (single isomer, unassigned) [Atropisomer A-2 Tartrate Pattern A salt]
7500 | ca. 0.3% | ca. 0.8% | > 100000 | 0.55 | ~0.659 | 16.5 | 1.19 | fair | A white solid. | 99.60 | 0.2 | A white solid. | 99.60 | 0.2 | A white solid. | 99.60 | 0.2 | No change |  | CN(C)CCNC(=O)c1ccc(-c2ccc(-c3ccc(Cl)cc3)n2-c2ccccc2C(F)(F)F)cc1 (single isomer, unassigned) [Atropisomer A-2 Tartrate Pattern B salt]
 |  |  |  |  |  |  |  |  |  |  |  |  |  |  |  |  |  |  | < 1 | CN(C)CCNC(=O)c1ccc(-c2ccc(-c3ccc(Cl)cc3)n2-c2ccccc2C(F)(F)F)cc1 [(+)-L-tartaric acid salt, (R)-4-[5-(4-chlorophenyl)-1-[2-(trifluoromethyl)-phenyl]pyrrol-2-yl]-N-[2-(dimethylamino)-ethyl]benzamide (+)-L-tartaric acid salt]
